{"source": "patent US20080206215A1", "about": "“APPARATUS AND METHOD FOR TREATMENT OF MICROORGANISMS DURING PROPAGATION, CONDITIONING AND FERMENTATION” (priority 2006, published 2008)", "key": {"bacteria": {"system": "bacteria", "experiment": "amount of bacteria (CFU/g) in fermenting mash treated with antimicrobial agents", "assay_type": "cell-based", "conditions": "FIG. 5", "from_the_text": "FIG. 5 is a bar graph showing the amount of bacteria present (in CFU/g) in fermenting mash treated with different antimicrobial agents (in ppm) at different times (in hours).\nFIG. 5 is a bar graph showing the amount of bacteria present (in CFU/g) in fermenting mash treated with different levels of an antimicrobial agent (in ppm), either ClO2 or antibiotic, at different times (in hours)."}, "yeast [1]": {"system": "yeast", "experiment": "ethanol production from corn mash treated with ClO2 prior to fermentation", "assay_type": "cell-based", "conditions": "ClO2 dosages of between about 10 and about 75 mg/L applied to the mash prior to fermentation; FIG. 3", "from_the_text": "FIG. 3 is a graph of time (in hours) versus ethanol produced (in grams) for mash treated with various concentrations of ClO2 prior to the fermentation process.\nThe ClO2 can also be added to the mash prior to the fermentation process, for example before the SSF stage. FIG. 3 is a graph of time (in hours) versus ethanol produced (in grams) for mash treated with various concentrations of ClO2 prior to the fermentation process."}, "yeast [2]": {"system": "yeast", "experiment": "ethanol production in fermentation batches treated with ClO2 during fermentation", "assay_type": "cell-based", "conditions": "ClO2 dosages of less than about 15 mg/L applied directly to the fermentation mixture; FIG. 2", "from_the_text": "FIG. 2 is a graph of time (in hours) versus ethanol produced (in grams) for fermentation batches treated with various concentrations of ClO2 during fermentation.\nAs mentioned above, ClO2 can be added directly into the fermentation mixture. This can be done by adding the ClO2 in conjunction with the yeast and glucoamylase, for example during the SSF stage. FIG. 2 is a graph of time (in hours) versus ethanol produced (in grams) for fermentation batches treated with various concentrations of ClO2 during fermentation."}, "yeast [3]": {"system": "yeast", "experiment": "yeast viability in corn mash treated with ClO2 during propagation/conditioning", "assay_type": "cell-based", "conditions": "yeast treated with ClO2 during propagation/conditioning phase; FIG. 4", "from_the_text": "FIG. 4 is a bar graph of viability (% of yeast cells living out of the original number) over time (in hours) in the corn mash treated with 0, 10 and 50 ppm of ClO2.\nChlorine dioxide can also be added during propagation and/or conditioning. For example ClO2 can be added to the yeast slurry before SSF replacing the acid washing step. FIG. 4 is a bar graph of viability (% of yeast cells living out of the original number) over time (in hours) in the corn mash treated with 0, 10 and 500 ppm of ClO2. […] The yeast can tolerate a ClO2 environment and remain viable at high concentrations of ClO2. Competing bacteria, wild yeast, molds, etc. will succumb to the ClO2 leaving only highly viable yeast for fermentation without the additional stress of traditional acid washing. Chlorine dioxide dosages of less than about 50 mg/L may be applied directly to the yeast during propagation."}, "fermentation": {"system": "fermentation", "conditions": "background statement; cited from earlier work"}, "Weisella confusa": {"system": "Weisella confusa", "conditions": "background statement; cited from earlier work"}}}
{"compound": "[O-][Cl+]O", "note": "[chlorite ion]", "values": [{"measurement": "concentration that inhibits the glucoamylase enzyme", "setting": "glucoamylase; 5% maltose solution, FIG. 6", "result": "≥ 14", "unit": "mg/L"}]}
{"compound": "[O][Cl+][O-]", "note": "[ClO2, Chlorine dioxide]", "values": [{"measurement": "microbial reduction versus untreated mash", "setting": "bacteria; corn mash treated with ClO2, after 72 hours", "result": "greater microbial reduction than untreated mash"}, {"measurement": "microbial reduction versus antibiotic-treated mash", "setting": "bacteria; corn mash treated with greater than 10 ppm of ClO2, after 72 hours", "result": "greater microbial reduction than the corn mash treated with antibiotic"}, {"measurement": "reaction with glucoamylase", "setting": "glucoamylase", "result": "does not exhibit a significant reaction with glucoamylase"}, {"measurement": "ethanol production versus control", "setting": "yeast [1]", "result": "greater ethanol production than the control containing no ClO2"}, {"measurement": "ethanol production versus control", "setting": "yeast [2]", "result": "greater ethanol production than the control containing no ClO2"}, {"measurement": "greater yeast viability than untreated yeast", "setting": "yeast [3]", "result": "up to 80%"}]}
{"compound": "Virginiamycin", "values": [{"measurement": "concentration that suppresses fermentation", "setting": "fermentation", "result": "over 2 mg/L"}, {"measurement": "concentration required to inhibit growth", "setting": "Weisella confusa", "result": "over 25 mg/L"}]}
